Measured values published in patent US11351173B2, “Substituted pyrrolo[1,2-a]pyrimidines and their use in the treatment of medical disorders” (Bial—R&D Investments, S.A., priority 2014, dated 2022).
≈ marks a conversion by molar mass, not a printed value.

Tests used:
[1] = Compound solubility in water; conditions: water; for solubility: Compound Solubility in Water
[2] = biological target: T1, glucocerebrosidase (Gcase) (Homo sapiens, UniProt P04062); test: Glucocerebrosidase (Gcase) activation assay, 4-methylumbelliferyl-beta-D-glucopyranoside substrate, fluorescence readout; assay type: biochemical; conditions: for activation at 0.1 µM / Percent Gcase Activation, 0.1 μM Test Compound: test compound at 0.1 μM; for activation at 0.1 µM: read-out: Percent Gcase Activation, 0.1 μM Test Compound; for activation at 1 µM / Percent Gcase Activation, 1 μM Test Compound: test compound at 1.0 μM; for activation at 1 µM: read-out: Percent Gcase Activation, 1 μM Test Compound
T1 construct: micellar solution containing 10 nM GCase and 100 nM saposin C
T1 sequence (P04062 40-536): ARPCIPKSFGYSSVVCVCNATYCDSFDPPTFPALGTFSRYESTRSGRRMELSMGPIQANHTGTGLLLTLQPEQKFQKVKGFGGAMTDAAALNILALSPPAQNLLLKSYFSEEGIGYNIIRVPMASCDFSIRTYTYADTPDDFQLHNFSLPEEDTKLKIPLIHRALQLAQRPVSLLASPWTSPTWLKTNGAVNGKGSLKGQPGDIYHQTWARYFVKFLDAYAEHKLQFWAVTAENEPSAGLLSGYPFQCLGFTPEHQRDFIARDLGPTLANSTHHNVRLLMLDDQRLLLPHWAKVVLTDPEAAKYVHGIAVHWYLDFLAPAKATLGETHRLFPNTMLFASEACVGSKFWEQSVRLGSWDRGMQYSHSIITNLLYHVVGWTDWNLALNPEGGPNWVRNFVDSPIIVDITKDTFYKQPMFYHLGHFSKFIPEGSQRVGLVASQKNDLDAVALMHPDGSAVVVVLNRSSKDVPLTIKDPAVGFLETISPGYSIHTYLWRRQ
Description: The ability of exemplary compounds to activate glucocerebrosidase (Gcase) was measured.
A 484 μL aliquot of a 1.0 mg/mL solution of phosphatidylserine (PS) (Sigma P7769) in chloroform was evaporated under a stream of nitrogen for 1 hour. The lipid film was dissolved over 4 minutes of vigorous vortexing in 40 mL of 176 mM K2HPO4/50 mM citric acid (pH 4.7) containing 7.5 μL of triton X-100, resulting in a mixed micellar preparation with a composition of 0.32 mM triton and 0.37 mol % PS. 4-Methylumbelliferyl-beta-D-glucopyranoside (ACROS-337025000) was dissolved in the micellar solution to a final concentration of 2 mM for use as the reaction substrate.
Test compounds were diluted to the desired concentrations with dimethylsulfoxide (DMSO) from 10 mM stocks, and 0.41 μL of the DMSO compound mixture was added to 100 μL of micellar solution containing 10 nM GCase and 100 nM saposin C (Enzo ALX-201-262-C050). Pre-incubation was allowed to occur for 30 minutes at room temperature, after which the reaction was initiated by combining 25 μL of substrate solution with 25 μL of compound/GCase/saposin mixture. The reaction proceeded for 15 minutes at room temperature and was stopped by adding 150 μL of 1M glycine, pH 12.5. The endpoint of the reaction was monitored by measuring fluorescence intensity (excitation: 365 nm; emission: 440 nm) on a SpectraMax i3 instrument (Molecular Devices). Test compounds were screened at 1.0 and 0.1 μM final concentration, and subsequent 8-point dose response curves were obtained using 3-fold dilutions from a maximum final concentration of 5 μM.

Compound | solubility [1] | activation at 0.1 µM [2] | activation at 1 µM [2] | Compound Solubility in Water [1] | Percent Gcase Activation, 0.1 μM Test Compound [2] | Percent Gcase Activation, 1 μM Test Compound [2] | solubility ([1]; in water)
Cc1cc(C)n2ccc(C(=O)Nc3ccc(-c4cocn4)cc3)c2n1 [III-1] | < 1.5 µg/mL | > 20% | > 60% |  |  |  | 
Cc1cc(C)n2ccc(C(=O)Nc3ccc(-c4cocn4)nc3)c2n1 [III-3] | < 1.5 µg/mL | < 10% | 30 to 60% |  |  |  | 
Cc1cc(C)n2ccc(C(=O)Nc3ccc(-c4ncco4)cc3)c2n1 [III-7] | 0.06 µg/mL (≈ 0.181 µM) | > 20% | > 60% |  |  |  | 
Cc1cc(C)n2ccc(C(=O)Nc3ccc(-c4cccs4)nc3)c2n1 [III-8] | 0.01 µg/mL (≈ 0.0287 µM) | > 20% | > 60% |  |  |  | 
Cc1cc(C)n2ccc(C(=O)Nc3ccc(-c4ccco4)cc3)c2n1 [III-9] |  |  |  | <0.1 µg/mL | *** (greater than 20% Gcase activation) | +++ (Gcase activation greater than 60%) | 
Cc1cc(C)n2ccc(C(=O)Nc3ccc(-c4ccco4)nc3)c2n1 [III-10] | 0.3 µg/mL (≈ 0.903 µM) | > 20% | > 60% |  |  |  | 
Cc1cc(C)n2ccc(C(=O)Nc3ccc(-c4ccncc4)cc3)c2n1 [III-11] | 0.01 µg/mL (≈ 0.0292 µM) | 10 to 20% | 30 to 60% |  |  |  | 
Cc1cc(C)n2ccc(C(=O)Nc3ccc(-c4cnn(C)c4)cc3)c2n1 [III-12] | 0.06 µg/mL (≈ 0.174 µM) | > 20% | 30 to 60% |  |  |  | 
Cc1cc(C)n2ccc(C(=O)Nc3ccc(C)c(-c4ncco4)c3)c2n1 [III-14] |  |  |  | <1.5 µg/mL | *** (greater than 20% Gcase activation) | +++ (Gcase activation greater than 60%) | 
Cc1cc(C)n2ccc(C(=O)Nc3ccc(Cl)c(COc4cccnc4)c3)c2n1 [III-15] | < 0.1 µg/mL | > 20% | > 60% |  |  |  | 
Cc1cc(C)n2ccc(C(=O)Nc3ccc(-c4cnn(C)c4)nc3)c2n1 [III-21] | 0.2 µg/mL (≈ 0.577 µM) | < 10% | < 30% |  |  |  | 
O=C(Nc1ccc(-c2cocn2)cc1)c1ccn2c(C(F)F)cc(C(F)F)nc12 [III-23] | 0.06 µg/mL (≈ 0.148 µM) | > 20% | > 60% |  |  |  | 
O=C(NC1CCCc2ccccc21)c1ccn2c(C(F)F)cc(C(F)F)nc12 (centres unmarked) [III-24] | 0.2 µg/mL (≈ 0.511 µM) | > 20% | > 60% |  |  |  | 
Cc1cc(C(F)F)n2ccc(C(=O)Nc3ccc(-c4cocn4)cc3)c2n1 [III-27] | 0.3 µg/mL (≈ 0.814 µM) | > 20% | 30 to 60% |  |  |  | 
Cc1cc(C(F)F)nc2c(C(=O)NC3CCCc4ccccc43)ccn12 (centres unmarked) [III-29] | 0.9 µg/mL (≈ 2.53 µM) | > 20% | > 60% |  |  |  | 
Cc1cc(C(F)F)nc2c(C(=O)Nc3ccc(-c4cocn4)cc3)ccn12 [III-30] | 0.06 µg/mL (≈ 0.163 µM) | > 20% | 30 to 60% |  |  |  | 
COCc1cc(C(C)C)nc2c(C(=O)NC3(C)CCCc4ncncc43)ccn12 (centres unmarked) [III-31] |  | < 10% | < 30% |  |  |  | 
COCc1cc(C(C)C)n2ccc(C(=O)NC3(C)CCCc4ncncc43)c2n1 (centres unmarked) [III-32] |  | < 10% | < 30% |  |  |  | 
COc1cc(C)nc2c(C(=O)Nc3ccc(-c4cocn4)cc3)ccn12 [III-51] |  | 10 to 20% | < 30% |  |  |  | 
Cc1cc(C(F)(F)F)nc2c(C(=O)NC3(C)CCCc4ncncc43)ccn12 (centres unmarked) [III-250] |  | < 10% | < 30% |  |  |  | 

Continued, values first:

solubility [1] | activation at 0.1 µM [2] | activation at 1 µM [2] | Compound Solubility in Water [1] | Percent Gcase Activation, 0.1 μM Test Compound [2] | Percent Gcase Activation, 1 μM Test Compound [2] | solubility ([1]; in water) | Compound
< 1.5 µg/mL | > 20% | > 60% |  |  |  |  | C#Cc1ccc(NC(=O)c2ccn3c(C)cc(C)nc23)cc1 [III-2]
< 1.5 µg/mL | > 20% | > 60% |  |  |  |  | COCC#Cc1ccc(NC(=O)c2ccn3c(C)cc(C)nc23)cc1 [III-4]
10.1 µg/mL (≈ 34.8 µM) | < 10% | > 60% |  |  |  |  | C#Cc1ccc(NC(=O)c2ccn3c(C)cc(C)nc23)cn1 [III-5]
< 0.1 µg/mL | > 20% | > 60% |  |  |  |  | CCCCCOc1ccc(NC(=O)c2ccn3c(C)cc(C)nc23)cc1 [III-6]
 |  |  | 0.06 µg/mL | *** (greater than 20% Gcase activation) | +++ (Gcase activation greater than 60%) |  | Cc1cc(C)n2ccc(C(=O)Nc3ccc4c(c3)CCC4)c2n1 [III-13]
0.2 µg/mL (≈ 0.647 µM) | > 20% | > 60% |  |  |  |  | Cc1cc(C)n2ccc(C(=O)Nc3ccc4c(c3)OCO4)c2n1 [III-16]
< 0.1 µg/mL | < 10% | 30 to 60% |  |  |  |  | Cc1cc(C)n2ccc(C(=O)Nc3ccc(N4CCCCC4)cc3)c2n1 [III-17]
0.7 µg/mL (≈ 2.09 µM) | < 10% | 30 to 60% |  |  |  |  | COCC#Cc1ccc(NC(=O)c2ccn3c(C)cc(C)nc23)cn1 [III-18]
17.2 µg/mL (≈ 48.8 µM) | < 10% | < 30% |  |  |  |  | Cc1cc(C)n2ccc(C(=O)Nc3ccc(OCCCCN)cc3)c2n1 [III-19]
20.8 µg/mL (≈ 56.8 µM) | < 10% | < 30% |  |  |  |  | CNCCCCOc1ccc(NC(=O)c2ccn3c(C)cc(C)nc23)cc1 [III-20]
0.5 µg/mL (≈ 1.4 µM) | > 20% | > 60% |  |  |  |  | CCCCCOC1CCC(NC(=O)c2ccn3c(C)cc(C)nc23)CC1 (centres unmarked) [III-22]
0.4 µg/mL (≈ 0.931 µM) | > 20% | > 60% |  |  |  |  | CCCCCO[C@H]1CC[C@H](NC(=O)c2ccn3c(C(F)F)cc(C(F)F)nc23)CC1 [III-25]
18.1 µg/mL (≈ 52.7 µM) | > 20% | > 60% |  |  |  |  | CCCCO[C@H]1CC[C@H](NC(=O)c2ccn3c(C)cc(C)nc23)CC1 [III-26]
0.7 µg/mL (≈ 1.97 µM) | > 20% | > 60% |  |  |  |  | Cc1cc(C(F)F)n2ccc(C(=O)NC3CCCc4ccccc43)c2n1 (centres unmarked) [III-28]
21 µg/mL (≈ 56.2 µM) | 10 to 20% | > 60% |  |  |  |  | CCCCO[C@H]1CC[C@H](NC(=O)c2ccn3c(COC)cc(C)nc23)CC1 [III-33]
1.8 µg/mL (≈ 4.4 µM) | 10 to 20% | > 60% |  |  |  |  | CCCCO[C@H]1CC[C@H](NC(=O)c2ccn3c(COC)cc(C(F)F)nc23)CC1 [III-34]
 | > 20% | > 60% |  |  |  |  | Cc1cc(C)n2ccc(C(=O)N[C@@H](C)c3ccccc3F)c2n1 [III-77]
 | > 20% | > 60% |  |  |  |  | Cc1cc(C)n2ccc(C(=O)N[C@@H](C)c3ccc(F)cc3)c2n1 [III-78]
 | 10 to 20% | > 60% |  |  |  |  | Cc1cc(C)n2ccc(C(=O)NC(C)(C)c3ccccc3Cl)c2n1 [III-79]
 | < 10% | 30 to 60% |  |  |  |  | Cc1cc(C)n2ccc(C(=O)Nc3ccc4c(c3)C(n3oc(C)cc3=O)CC4)c2n1 (centres unmarked) [III-97]
 | < 10% | < 30% |  |  |  |  | Cc1cc(C)n2ccc(C(=O)NC3CCC4(CCOCC4)CC3)c2n1 [III-140]
 | < 10% | < 30% |  |  |  |  | Cc1cc(C)n2ccc(C(=O)NC3(C)CCCc4ncncc43)c2n1 (centres unmarked) [III-175]
 | > 20% | > 60% |  |  |  |  | Cc1cc(C)n2ccc(C(=O)NC3CCCC(Oc4cccs4)C3)c2n1 (centres unmarked) [III-191]
 | < 10% | < 30% |  |  |  |  | CCCOC1CC(CNC(=O)c2ccn3c(C)cc(C)nc23)C1 (centres unmarked) [III-239]
 | < 10% |  |  |  |  |  | Cc1cc(C)n2ccc(C(=O)NC3CCC(Oc4cc(C)on4)C3)c2n1 (centres unmarked) [III-243]
 |  |  |  |  | +++ (Gcase activation greater than 60%) |  | Cc1cc(C)n2ccc(C(=O)NC3CCC(Oc4cc(C)on4)C3)c2n1 (centres unmarked) [III-244]
 |  |  |  |  |  | 0.2 µg/mL (≈ 0.647 µM) | Cc1cc(C)n2ccc(C(=O)Nc3ccc4c(c3)OCO4)c2n1 [III-280]
 |  |  |  |  |  | < 0.1 µg/mL | Cc1cc(C)n2ccc(C(=O)Nc3ccc(N4CCCCC4)cc3)c2n1 [III-281]
 |  |  |  |  |  | 0.7 µg/mL (≈ 2.09 µM) | COCC#Cc1ccc(NC(=O)c2ccn3c(C)cc(C)nc23)cn1 [III-282]
